Source: article PMC8074792, “An ω-3, but Not an ω-6 Polyunsaturated Fatty Acid Decreases Membrane Dipole Potential and Stimulates Endo-Lysosomal Escape of Penetratin” (Frontiers in Cell and Developmental Biology, 2021)

Assays:
JY cells [1] = test: Membrane dipole potential, di-8-ANEPPS excitation ratio, spectrofluorometry; type: cell-based, human; settings: for Rexc, di-8-ANEPPS (excitation ratio 410-440 nm / 490-520 nm, positively correlates with DP): agent 20-200 μM, 10 min, 0.05% Pluronic F-127, measured at 37°C, mean of 5 experiments
Experimental: (§1) The human acute monocytic leukemia-derived cell line THP-1 and the human Epstein-Barr virus (EBV) transformed lymphoblastoid cell line JY were obtained from the American Type Culture Collection (Manassas, VA, United States) and cultivated according to their specifications. […] As controls, cells were treated with the corresponding amounts of native MβCD complexes not containing sterols. To study the effects of fatty acids, cells were incubated for 48 h in medium supplemented with saturated stearic acid (SA, Sigma Aldrich), ω-3 polyunsaturated α-linolenic acid (ALA, Sigma Aldrich) or ω-6 polyunsaturated γ-linolenic acid (GLA, Sigma Aldrich) at various concentrations ranging from 12.5 to 50 μM. […] After washing, cells were kept on ice and samples were subsequently warmed to 37°C right before measurements carried out with a Fluorolog-3 spectrofluorometer (Horiba Jobin Yvon, Edison, NJ, United States). During measurements, the cuvette holder was kept at 37°C using a circulating water bath. Excitation spectra were recorded between 380 and 550 nm with the detected emission wavelength set to 660 nm in order to minimize effects of possible changes in membrane fluidity ([Clarke and Kane, 1997]). The ratio of fluorescence intensities integrated between excitation wavelengths 410–440 nm and 490–520 nm was calculated for each sample, which positively correlates with the magnitude of DP ([Clarke and Kane, 1997]; [Kovacs et al., 2017]; [Batta et al., 2020]).

THP-1 cells [2] = test: as above; type: cell-based, human; settings: for Rexc, di-8-ANEPPS (excitation ratio 410-440 nm / 490-520 nm, positively correlates with DP): agent 20-200 μM, 10 min, 0.05% Pluronic F-127, measured at 37°C, mean of 5 experiments
Experimental: as §1

JY cells [3] = test: Membrane dipole potential, F66 emission ratio, flow cytometry; type: cell-based, human; settings: n = 5; for Rem, F66 (emission ratio N*/T*, 470-490 nm / 564-606 nm, negatively correlates with DP): agent 20-200 μM, 10 min, 0.05% Pluronic F-127, at least 20,000 living cells per sample
Experimental: (§2) The human acute monocytic leukemia-derived cell line THP-1 and the human Epstein-Barr virus (EBV) transformed lymphoblastoid cell line JY were obtained from the American Type Culture Collection (Manassas, VA, United States) and cultivated according to their specifications. […] As controls, cells were treated with the corresponding amounts of native MβCD complexes not containing sterols. To study the effects of fatty acids, cells were incubated for 48 h in medium supplemented with saturated stearic acid (SA, Sigma Aldrich), ω-3 polyunsaturated α-linolenic acid (ALA, Sigma Aldrich) or ω-6 polyunsaturated γ-linolenic acid (GLA, Sigma Aldrich) at various concentrations ranging from 12.5 to 50 μM. […] After washing, the fluorescence intensities of cells were determined with a FACS Aria III flow cytometer (Becton Dickinson, Mountain View, CA, United States) at 37°C. […] Data analysis was carried out in FCS Express (De Novo Software, Los Angeles, CA, United States). The ratio of emitted intensities in the two wavelength ranges (N^∗/T^∗) was determined for each cell and the average value was calculated for each sample from the data of living cells gated on FSC-SSC dot plots. The value of N^∗/T^∗ ratio negatively correlates with the magnitude of DP ([Kovacs et al., 2017]).

THP-1 cells [4] = test: as above; type: cell-based, human; settings: n = 5; for Rem, F66 (emission ratio N*/T*, 470-490 nm / 564-606 nm, negatively correlates with DP): agent 20-200 μM, 10 min, 0.05% Pluronic F-127, at least 20,000 living cells per sample
Experimental: as §2

JY cells [5] = test: Membrane fluidity, TMA-DPH fluorescence anisotropy; type: cell-based, human; settings: 200 μM sterol 1 h or 50 μM fatty acid 48 h, 37°C, n = 6, vs control
Experimental: (§3) 4′-(trimethylammonio)-diphenylhexatriene (TMA-DPH) was purchased from Sigma-Aldrich, dissolved in tetrahydrofuran and used for determination of membrane fluidity as described previously ([Batta et al., 2018]). […] Fluorescence intensities were measured without washing using a Fluorolog-3 spectrofluorometer (Horiba Jobin Yvon, Edison, NJ, United States) with the temperature of the cuvette holder adjusted to 37°C by a circulating water bath. The fluorescence anisotropy (r) of TMA-DPH was determined in the L-format after excitation at 352 nm and measurement of fluorescence intensities at 430 nm according to the formula: […]

THP-1 cells [6] = test: Membrane fluidity, TMA-DPH fluorescence anisotropy; type: cell-based, human; settings: 200 μM sterol 1 h or 50 μM fatty acid 48 h, 37°C, n = 6, vs control
Experimental: as §3

JY cells [7] = test: Membrane hydration, PY3174 generalized polarization, confocal microscopy; type: cell-based, human; settings: 200 μM sterol 1 h or 50 μM fatty acid 48 h, efficacy order 6KC > cholesterol ≥ 7DHC, effects of 7DHC and SA not statistically significant
Experimental: (§4) For these measurements, cells were labeled with 10 μM PY3174 for 20 min at room temperature. […] During processing, segmentation of images into membrane and non-membrane pixels was carried out with the manually seeded watershed algorithm using a custom-written MATLAB program as described previously ([Kovacs et al., 2017]). The average value of general polarization correlating with the degree of membrane compactness ([[…] et al., 2013]) was calculated from the data of cell membrane pixels after background subtraction using […]

THP-1 cells [8] = test: as above; type: cell-based, human; settings: 200 μM sterol 1 h or 50 μM fatty acid 48 h, efficacy order 6KC > cholesterol ≥ 7DHC, all statistically significant
Experimental: as §4

JY cells [9] = test: Penetratin uptake and endo-lysosomal escape, time-correlated flow cytometry; type: cell-based, human; settings: 37°C
Excerpt: (§5) Penetratin ([…]-amide, molecular weight 2245.75 g/mol) was synthesized manually on TentaGel R RAM (Rapp Polymere, Tübingen, Germany), a low crosslinked polystyrene PEG copolymer resin by the solid-phase method of Merrifield with standard Fmoc chemistry, as described in detail in our recent study ([Batta et al., 2020]). After coupling the last arginine, one half of the penetratin was reacted with AFDye532 N-hydroxysuccinimide ester (molecular weight 723.77 g/mol, Fluoroprobes, Scottsdale, AZ, United States), while the other half with 5(6)-carboxynaphthofluorescein N-succinimidyl ester (molecular weight 573.51 g/mol, Darmstadt, Germany). Completion of the coupling was assessed by Kaiser test, which was followed by deprotection and release from the resin. After filtration and precipitation with cold diethyl ether, the crude products were purified by preparative reversed-phase HPLC (JASCO, Victoria, BC, Canada) on a C18 column and lyophilized. The purity of the products (>95%) was assessed by reversed-phase HPLC (JASCO) equipped with an analytical C18 column. […] These values well correlated with the predicted masses of the labeled peptides (2983.59 and 2833.33, respectively).
(§6) Total cellular penetratin uptake and endo-lysosomal escape was determined as described previously ([Batta et al., 2020]). Briefly, control THP-1 or JY cells and those treated with 50 μM ALA, GLA or SA for 48 h at 37°C were incubated in the continuous presence of 5 μM AFDye532-penetratin, 5 μM NF-penetratin and 0.25 μg/ml DAPI at 37°C in the thermostated sample holder of a FACS Aria III flow cytometer. The fluorescence intensity of DAPI was measured using an excitation at 405 nm and an emission filter 450/20 nm. AFDye532 and NF were excited at 488 and 561 nm, respectively, and their fluorescence was determined using emission filters 530/30 and 670/14 nm, respectively. Measurements started immediately after addition of DAPI and penetratin and continued for 20 min at 37°C. Experimental data were analyzed first in FCS Express. Time-correlated fluorescence intensity values of DAPI-negative living cells were exported after spectral compensation and the moving averages of samples were calculated with a window size of 10 s. […] During analysis, fluorescence intensity values were first normalized to the average intensity in the first time window, which was followed by calculation of the fluorescence ratio from the normalized values.

THP-1 cells [10] = test: as above; type: cell-based, human; settings: 37°C
Excerpt: as §5, §6

[11] = design: method as in Batta et al., 2020; settings: lowering DP with the agent; ref Batta et al., 2020; cited from earlier work
Excerpt: One of the most widely studied cellular functions influenced by the magnitude of DP is the cellular binding and uptake of certain substances including drugs ([Asawakarn et al., 2001]), β-amyloid ([Hertel et al., 1997]) and other peptides ([Cladera and O’Shea, 1998]; [Zhan and Lazaridis, 2012]). […] Although cell-penetrating peptides are promising therapeutic tools for de ...

[12] = sterol-MβCD complex, 60 min, room temperature, at the maximal applied concentration of 200 μM, n = 5, statistically significant
[13] = fatty acid 12.5-50 μM for 48 h, result at maximal 50 μM, n = 5
[14] = 50 μM fatty acid 48 h, then 50 or 200 μM cholesterol 1 h
[15] = 50 μM fatty acid 48 h, 5 μM AFDye532- and 5 μM NF-penetratin, compared at 900 s, n = 5
[16] = 5 μM AFDye532-penetratin + 5 μM NF-penetratin, flow cytometry, living cells
[17] = 5 μM AFDye532-penetratin + 5 μM NF-penetratin, continuous presence, flow cytometry, DAPI-negative living cells
[18] = 5 μM of each labeled penetratin, decline followed by a continuous gradual increase

Row | Molecule | Rexc, di-8-ANEPPS (excitation ratio 410-440 nm / 490-520 nm, positively correlates with DP) (JY cells [1]; room temperature) | Rexc, di-8-ANEPPS (JY cells [1]; [12]) | Rexc, di-8-ANEPPS (excitation ratio 410-440 nm / 490-520 nm, positively correlates with DP) (THP-1 cells [2]; room temperature) | Rexc, di-8-ANEPPS (THP-1 cells [2]; [12]) | Rem, F66 (emission ratio N*/T*, 470-490 nm / 564-606 nm, negatively correlates with DP) (JY cells [3]) | Rem, F66 (emission ratio N*/T*, 470-490 nm / 564-606 nm, negatively correlates with DP) (THP-1 cells [4]) | TMA-DPH fluorescence anisotropy (inversely correlates with membrane fluidity) (JY cells [5]) | TMA-DPH fluorescence anisotropy (inversely correlates with membrane fluidity) (THP-1 cells [6]) | PY3174 generalized polarization in the cell membrane (inversely correlates with membrane hydration) (JY cells [7]) | PY3174 generalized polarization in the cell membrane (inversely correlates with membrane hydration) (THP-1 cells [8]) | further results
1 | CC(C)CCC[C@@H](C)[C@H]1CC[C@H]2[C@@H]3CC(=O)[C@H]4C[C@@H](O)CC[C@]4(C)[C@H]3CC[C@]12C [6KC, 3β-hydroxy-5α-cholestan-6-one] | dose-dependently increased | robustly elevated | dose-dependently increased | robustly elevated | dose-dependent decreases | dose-dependent decreases | did not reach statistical significance | did not reach statistical significance | shifted toward the positive direction | shifted toward the positive direction | 
2 | CC(C)CCC[C@@H](C)[C@H]1CC[C@H]2C3=CC=C4C[C@@H](O)CC[C@]4(C)[C@H]3CC[C@]12C [7DHC, 7-dehydrocholesterol] |  | slightly raised |  | slightly raised |  |  | significantly elevated | significantly elevated | shifted toward the positive direction | shifted toward the positive direction | 
3 | CCCCCCCCCCCCCCCCCC(=O)O [SA, stearic acid] |  |  |  |  |  |  | did not reach statistical significance | did not reach statistical significance | increased the generalized polarization, albeit to a miniscule extent | increased the generalized polarization, albeit to a miniscule extent | Rexc, di-8-ANEPPS (JY cells [1]; [13]): slightly higher; Rexc, di-8-ANEPPS (THP-1 cells [2]; [13]): slightly higher; effect of fatty acid pretreatment on cholesterol-induced DP elevation (Rem, F66) (JY cells [3]; [14]): a tendency to augment the cholesterol-induced DP changes; effect of fatty acid pretreatment on cholesterol-induced DP elevation (Rem, F66) (THP-1 cells [4]; [14]): a tendency to augment the cholesterol-induced DP changes; Rem, F66 (THP-1 cells [4]; fatty acid 12.5-50 μM for 48 h): opposite changes were observed in response to SA or GLA with the former not reaching the level of significance; ratio of NF and AFDye532 intensities (endo-lysosomal escape of penetratin) vs controls (JY cells [9]; [15]): no significant changes; ratio of NF and AFDye532 intensities (endo-lysosomal escape of penetratin) vs controls (THP-1 cells [10]; [15]): no significant changes
4 | CC(C)CCC[C@@H](C)[C@H]1CC[C@H]2[C@@H]3CC=C4C[C@@H](O)CC[C@]4(C)[C@H]3CC[C@]12C [cholesterol] |  | moderately increased |  | moderately increased |  |  | significantly elevated | significantly elevated | shifted toward the positive direction | shifted toward the positive direction | 
5 | O=C(CCc1ccc(O)cc1)c1c(O)cc(O)cc1O [phloretin, 3-(4-hydroxyphenyl)-1-(2,4,6-trihydroxyphenyl) propan-1-one] | dose-dependently decreased |  | dose-dependently decreased |  | increased Rem, F66 values implying lower magnitudes of DP, this change did not reach the level of significance in one of the cell lines | increased Rem, F66 values implying lower magnitudes of DP, this change did not reach the level of significance in one of the cell lines |  |  |  |  | cellular uptake and endo-lysosomal escape of penetratin [11]: increased
6 | RQIKIWFQNRRMKWKK-amide [penetratin] |  |  |  |  |  |  |  |  |  |  | duration of fast increase of NF signal (endo-lysosomal escape of penetratin), followed by slower continuous rise (JY cells [9]; [16]): 180 to 240 s; time of saturation of AFDye532 signal (total cellular penetratin concentration) (JY cells [9]; [17]): 120 to 180 s; time course of ratio of NF and AFDye532 (fraction of penetratin in the cytosol) (JY cells [9]; [18]): initially declined; duration of fast increase of NF signal (endo-lysosomal escape of penetratin), followed by slower continuous rise (THP-1 cells [10]; [16]): 180 to 240 s; time of saturation of AFDye532 signal (total cellular penetratin concentration) (THP-1 cells [10]; [17]): 120 to 180 s; time course of ratio of NF and AFDye532 (fraction of penetratin in the cytosol) (THP-1 cells [10]; [18]): initially declined
